Measurements published in article PMC12304311, “Sequence-based virtual screening using transformers” (Nature Communications, 2025).
Each block holds one compound with its values, some of them ahead of it.

What was measured:
[1] = biological target: T1, EGFR L858R/T790M/C797S kinase (EGFR^LTC) (Homo sapiens, UniProt P00533, C797S/L858R/T790M); experiment: biochemical; parameters: HTRF KINASE-TK inhibition assay, EGFR L858R/T790M/C797S, ATP about Km, dose response
Method: A total of 25 nL of each compound was transferred to a 384-well reaction plate (Greiner, Cat#784075) using an Echo655 acoustic dispenser. […] The kinase solution was prepared in 1× kinase reaction buffer (comprising 5 mM MgCl₂, 1 mM DTT, and 1 mM MnCl₂), and 2.5 μL of this solution was added to each well. The plate was centrifuged at 140 g for 1 min and incubated at 25 °C for 10 min. […] This ATP level was selected in accordance with the Cheng-Prusoff equation (where ATP = Km, IC50 = 2Ki) to accurately reflect the inhibitory potency of test compounds. Then, 2.5 μL of the substrate-ATP mixture was added to each well, followed by centrifugation at 140 g for 1 min. The plate was sealed and incubated at 25 °C for 50 min. Subsequently, a 2× detection reagent mixture containing XL665 and anti-phospho-tyrosine antibody in detection buffer was prepared, and 5 μL of this solution was added to each well. The plate was centrifuged again (140 g, 1 min) and incubated at 25 °C for 60 min. Fluorescence emissions at 620 nm (Cryptate) and 665 nm (XL665) were measured using a microplate reader. Each assay condition was tested in duplicate. […] This was achieved by fitting the calculated percentage inhibition and the logarithm of the compound concentrations to a variable slope (four-parameter) nonlinear regression model. The model is expressed by the equation:3 Y=Bottom+Top−Bottom/1+10^LogIC50−X×Hill slope where X denotes the log of the inhibitor concentration and Y represents the percentage inhibition. Furthermore, the percentage of enzymatic activity in the presence of inhibitors, expressed as % Control, is derived by subtracting the % Inhibition from 100%.

[2] = biological target: T1, EGFR L858R/T790M/C797S kinase (EGFR^LTC); experiment: HTRF KINASE-TK in vitro kinase inhibition assay, dose response; type: biochemical

T1 sequence (P00533 669-1210 T790M/C797S/L858R limits assumed): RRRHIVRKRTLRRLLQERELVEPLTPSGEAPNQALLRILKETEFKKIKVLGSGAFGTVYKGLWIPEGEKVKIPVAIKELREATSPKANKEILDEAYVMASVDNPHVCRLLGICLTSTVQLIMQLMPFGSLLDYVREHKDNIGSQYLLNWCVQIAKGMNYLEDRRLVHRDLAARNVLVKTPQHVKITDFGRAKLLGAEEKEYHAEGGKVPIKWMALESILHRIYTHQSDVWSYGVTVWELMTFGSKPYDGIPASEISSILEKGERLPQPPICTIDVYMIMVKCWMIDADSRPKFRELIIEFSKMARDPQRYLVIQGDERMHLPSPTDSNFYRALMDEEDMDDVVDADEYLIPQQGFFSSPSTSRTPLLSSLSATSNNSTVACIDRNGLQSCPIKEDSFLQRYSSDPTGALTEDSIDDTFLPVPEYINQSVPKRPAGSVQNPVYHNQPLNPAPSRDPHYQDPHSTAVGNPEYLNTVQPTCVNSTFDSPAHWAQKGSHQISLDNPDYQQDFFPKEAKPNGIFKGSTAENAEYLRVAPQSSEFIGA

Structure (SMILES): CC(C)N(C[C@H]1O[C@@H](n2cnc3c(N)ncnc32)[C@H](O)[C@@H]1O)[C@H]1C[C@@H](CCc2nc3cc(C(C)(C)C)ccc3[nH]2)C1 [C6]
IC50 [1]: > 10 µM

Structure (SMILES): COc1cc(N2CCC(N(C)C)CC2)ccc1Nc1ncc(Cl)c(Nc2ccccc2P(C)(C)=O)n1 [C10]
IC50 [2]: 0.0012 µM

Structure (SMILES): CC(=O)c1cnc2ccc(-c3cc(Cl)c(O)c(Cl)c3)nc2c1N[C@H]1CC[C@H](CN(C)C)CC1 [C1]
IC50 [2]: 0.0055 µM

Structure (SMILES): N[C@@H]1c2cccnc2[C@H](OC(=O)N2CCC(n3c(=O)[nH]c4ncccc43)CC2)CC[C@H]1c1cccc(F)c1F [C8]
IC50 [1]: > 10 µM

Structure (SMILES): CC(=O)O[C@]1(C(C)=O)CC[C@H]2[C@@H]3CCC4=CC(=O)CCC4=C3[C@@H](c3ccc(N(C)C)cc3)C[C@@]21C [C9]
IC50 [1]: > 10 µM

More lines, now with the values ahead:

IC50 [1]: 0.106 µM
IC50 [2]: < 10 µM
Structure (SMILES): N#Cc1ccnc(Nc2cc(C3CCN(C4COC4)CC3)cc(N3CCC(F)(F)C3)n2)c1 [C11]

IC50 [1]: 2.74 µM
IC50 [2]: < 10 µM
Structure (SMILES): COc1cc2nccc(Oc3ccc(NC(=O)c4cn(C(C)C)c(=O)n(-c5ccc(F)cc5)c4=O)cc3F)c2cc1OC [C5]

IC50 [1]: > 10 µM
Structure (SMILES): CN(C)CC#Cc1ccc(OCCCc2sc(N3CCc4cccc(C(=O)Nc5nc6ccccc6s5)c4C3)nc2C(=O)O)c(F)c1 [C2]

IC50 [1]: 3.58 µM
IC50 [2]: < 10 µM
Structure (SMILES): CCc1cc(Nc2nccc(-c3c(-c4ccc(OC)c(C(=O)Nc5c(F)cccc5F)c4)nc4ccccn34)n2)c(OC)cc1N1CCC(N2CCN(S(C)(=O)=O)CC2)CC1 [C7]

IC50 [1]: > 10 µM
Structure (SMILES): CC1(C)CCC(CN2CCN(c3ccc(C(=O)NS(=O)(=O)c4ccc(NCC5CCOCC5)c([N+](=O)[O-])c4)c(Oc4cnc5[nH]ccc5c4)c3)CC2)=C(c2ccc(Cl)cc2)C1 [C3]
